Our source for the Ki values is patent US12410136B2, “Pyridinyl morpholine compound, preparation method therefor, and application thereof” (SHANGHAI ZHONGZE THERAPEUTICS, CO. LTD., priority 2020, dated 2025).

Assay [1] addresses T1, human recombinant D3 receptor (Homo sapiens, UniProt P35462).
T1 construct: expressed in transfected cells; host or cells: CHO
The assay is described as follows: Dopamine D3 receptor binding test. Conditions: [3H]methyl-spiperone 0.3 nM, human recombinant D3 receptor expressed in CHO cells; read-out: Affinity of the compound for each receptor (Ki value, nM) D3. The method, then:
Dopamine D3 Receptor Binding Test
[^3H]methyl-spiperone (0.3 nM) was used as the ligand, and (+)-butaclamol (10 μM) was used to determine the non-specific binding, and the binding assay was performed on human recombinant D3 receptor (expressed in CHO cells).

A further assay deals with T2, 5-HT2A receptor (Homo sapiens, UniProt P28223).
T2 construct: expressed in transfected cells; host or cells: HEK293
The experiment in a line: 5-HT2A receptor binding test. As to conditions: [3H]-Ketanserin, 5-HT2A receptor expressed in HEK293 cells; read-out: Affinity of the compound for each receptor (Ki value, nM) 5-HT2A. The text has this: 5-HT2A Receptor Binding Test
Beckman LS-6500 multifunctional liquid scintillation counter.
Tris-HCl reaction buffer (pH 7.7) was used to resuspend in the experiment.

For another assay, the target named is D2 receptor (Homo sapiens, UniProt P14416). The experiment in a line: Dopamine D2 receptor binding test.
A further assay addresses T3, H1 receptor (Homo sapiens, UniProt P35367).
T3 construct: expressed in transfected cells; host or cells: HEK-293
The assay is described as follows: H1 receptor binding test. Conditions: 1 nM [3H]pyrilamine, HEK-293 cell membrane homogenate; read-out: Affinity of the compound for H1 receptor (Ki value, nM) H1. The protocol: Non-specific binding was determined in the presence of 1 μM pyrilamine.

T2 sequence (P28223 whole entry): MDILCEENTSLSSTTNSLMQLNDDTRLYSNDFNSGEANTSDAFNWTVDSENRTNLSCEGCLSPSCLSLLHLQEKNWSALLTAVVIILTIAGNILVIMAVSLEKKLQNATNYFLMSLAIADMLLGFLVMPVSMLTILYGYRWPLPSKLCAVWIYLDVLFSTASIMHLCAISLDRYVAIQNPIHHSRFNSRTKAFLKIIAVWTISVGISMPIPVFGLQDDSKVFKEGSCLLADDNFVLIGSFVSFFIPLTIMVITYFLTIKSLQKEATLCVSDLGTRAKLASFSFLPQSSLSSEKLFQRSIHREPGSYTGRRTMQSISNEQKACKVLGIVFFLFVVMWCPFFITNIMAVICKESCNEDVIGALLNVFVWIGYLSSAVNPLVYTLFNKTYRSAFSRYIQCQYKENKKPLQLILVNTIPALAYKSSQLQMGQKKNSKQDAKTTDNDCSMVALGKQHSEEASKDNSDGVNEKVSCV
D2 receptor, sequence (P14416 whole entry): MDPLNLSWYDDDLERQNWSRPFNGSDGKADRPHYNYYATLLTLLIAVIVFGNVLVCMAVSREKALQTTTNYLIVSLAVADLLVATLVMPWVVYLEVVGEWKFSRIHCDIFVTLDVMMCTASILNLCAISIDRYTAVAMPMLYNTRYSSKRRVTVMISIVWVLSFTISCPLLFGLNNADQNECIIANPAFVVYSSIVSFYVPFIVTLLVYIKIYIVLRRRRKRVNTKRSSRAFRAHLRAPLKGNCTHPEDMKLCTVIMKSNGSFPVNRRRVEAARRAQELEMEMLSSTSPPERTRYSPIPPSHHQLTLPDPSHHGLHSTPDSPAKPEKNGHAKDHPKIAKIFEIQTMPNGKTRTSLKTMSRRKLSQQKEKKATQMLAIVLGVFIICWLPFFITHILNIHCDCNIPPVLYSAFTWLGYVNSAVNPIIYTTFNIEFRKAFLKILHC
T1 sequence (P35462 whole entry): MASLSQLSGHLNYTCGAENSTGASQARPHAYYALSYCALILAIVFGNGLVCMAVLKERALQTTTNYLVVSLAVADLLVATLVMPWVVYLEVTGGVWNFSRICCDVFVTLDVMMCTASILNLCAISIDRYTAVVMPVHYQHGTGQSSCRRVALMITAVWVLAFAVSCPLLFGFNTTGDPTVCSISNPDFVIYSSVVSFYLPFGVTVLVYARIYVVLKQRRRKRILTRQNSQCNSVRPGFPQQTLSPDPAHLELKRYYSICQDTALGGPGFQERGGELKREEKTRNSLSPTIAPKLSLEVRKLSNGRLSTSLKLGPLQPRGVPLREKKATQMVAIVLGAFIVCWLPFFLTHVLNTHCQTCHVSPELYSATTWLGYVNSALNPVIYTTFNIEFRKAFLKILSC
T3 sequence (P35367 whole entry): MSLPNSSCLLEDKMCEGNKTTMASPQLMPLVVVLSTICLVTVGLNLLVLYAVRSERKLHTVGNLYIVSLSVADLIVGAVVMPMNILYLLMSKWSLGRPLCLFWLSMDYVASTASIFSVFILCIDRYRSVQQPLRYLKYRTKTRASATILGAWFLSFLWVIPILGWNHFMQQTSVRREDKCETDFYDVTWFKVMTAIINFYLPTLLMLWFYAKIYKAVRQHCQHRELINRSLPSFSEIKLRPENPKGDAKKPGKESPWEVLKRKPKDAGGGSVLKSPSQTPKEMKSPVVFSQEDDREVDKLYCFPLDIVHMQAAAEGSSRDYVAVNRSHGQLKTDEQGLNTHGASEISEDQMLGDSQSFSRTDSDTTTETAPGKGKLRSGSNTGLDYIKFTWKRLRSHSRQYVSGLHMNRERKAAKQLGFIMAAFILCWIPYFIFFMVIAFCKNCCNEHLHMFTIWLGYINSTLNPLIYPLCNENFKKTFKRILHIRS
Description for D2 receptor: Dopamine D2 Receptor Binding Test
In this experiment, HEK293 cells were transfected with plasmid vector containing D2 receptor protein gene, and calcium phosphate transfection method was used and after transfection, the cells were cultured in a culture solution containing G418, and the cell monoclonal and radioligand binding experiments were selected, and finally a stable cell line which could stably express D2 receptor protein was obtained.
HeK-293 cells were infected with recombinant viruses containing the above various genes respectively, and after 48-72 hours, the receptor proteins were expressed in large quantities on the membrane, and the cells were centrifuged at 1000 rpm for 5 min and then the culture solution was discarded, and the cells were collected, and stored in a −20° C. refrigerator for later use. Tris-HCl reaction buffer (pH=7.5) was used to resuspend in the experiment.
On the Millipore cell sample collector, the mixture was quickly filtrated under reduced pressure through GF/C glass fiber filter paper, and eluted with 3 mL of eluent (50 mMTris-HCl, pH 7.5) for 3 times, then dried under microwave for 5 to 6 min. The filter paper was moved into a 0.5 mL centrifuge tube, and 500 μL of lipid-soluble scintillation solution was added. The mixture was kept in the dark for more than 30 min, and the radioactivity intensity was determined by counting. […] Two replicate tubes were made for each experiment of compound, and two separate experiments were performed.
Two tubes were tested for each concentration and two independent tests were performed for each compound.

In the case of `COc1ccc(-c2cc(N3CCOCC3)nc(N3CCN(CC[C@H]4CC[C@H](NC(=O)N5CCCCC5)CC4)CC3)c2)cc1` [III-3, N-(trans-4-(2-(4-(4-(4-methoxyphenyl)-6-morpholinopyridin-2-yl)piperazin-1-yl)ethyl)cyclohexyl)piperidine-1-carboxamide], the Ki in assay [1] was 0.5 nM; on 5-HT2A receptor, 12.5 nM; at D2 receptor it was 4.6 nM; on H1 receptor it was > 1000 nM.

`CCC(=O)N[C@H]1CC[C@H](CCN2CCN(c3cc(-c4cccnc4)cc(N4CCOCC4)n3)CC2)CC1` [IV-1]: the inhibition constant (Ki) was 0.05 nM in assay [1], 2.7 nM on 5-HT2A receptor, 2.5 nM at D2 receptor and > 1000 nM at H1 receptor.

In the case of `CN(C)C(=O)N[C@H]1CC[C@H](CCN2CCN(c3cc(-c4cccnc4)cc(N4CCOCC4)n3)CC2)CC1` [IV-3], the Ki came out at 0.1 nM in assay [1], 3.6 nM at 5-HT2A receptor, 2 nM on D2 receptor and 790 nM on H1 receptor.

In the case of `CC(C)N(C(=O)N[C@H]1CC[C@H](CCN2CCN(c3cc(-c4cccnc4)cc(N4CCOCC4)n3)CC2)CC1)C(C)C` [IV-4], the Ki is 0.08 nM in assay [1], 8.7 nM at 5-HT2A receptor, 1.7 nM on D2 receptor and 670 nM on H1 receptor.

Take `O=C(N[C@H]1CC[C@H](CCN2CCN(c3cc(-c4cccs4)cc(N4CCOCC4)n3)CC2)CC1)C1CC1` [VI-2, N-(trans-4-(2-(4-(6-morpholino-4-(thiophen-2-yl)pyridin-2-yl)piperazin-1-yl)ethyl)cyclohexyl)cyclopropanecarboxamide]: the Ki in assay [1] was 0.08 nM; at 5-HT2A receptor, 2.1 nM; at D2 receptor, 1.3 nM; on H1 receptor it was > 1000 nM.

On to `O=C(N[C@H]1CC[C@H](CCN2CCN(c3cc(-c4cccs4)cc(N4CCOCC4)n3)CC2)CC1)c1cccnc1` [VI-3, N-(trans-4-(2-(4-(6-morpholino-4-(thiophen-2-yl)pyridin-2-yl)piperazin-1-yl)ethyl)cyclohexyl)nicotinamide], for which the Ki was 0.8 nM in assay [1], 1.7 nM on 5-HT2A receptor, 1.9 nM on D2 receptor and 740 nM at H1 receptor.

As to `CN(C)C(=O)N[C@H]1CC[C@H](CCN2CCN(c3cc(-c4cccs4)cc(N4CCOCC4)n3)CC2)CC1` [VI-4, 1,1-dimethyl-3-(trans-4-(2-(4-(6-morpholino-4-(thiophen-2-yl)pyridin-2-yl)piperazin-1-yl)ethyl)cyclohexyl)urea], the Ki worked out at 0.1 nM in assay [1], 0.9 nM on 5-HT2A receptor, 2 nM at D2 receptor and 590 nM at H1 receptor.

`CCC(=O)N[C@H]1CC[C@H](CCN2CCN(c3cc(-c4ccc[nH]4)cc(N4CCOCC4)n3)CC2)CC1` [VII-1, N-(trans-4-(2-(4-(6-morpholino-4-(1H-pyrrol-2-yl)pyridin-2-yl)piperazin-1-yl)ethyl)cyclohexyl)propionamide]: the Ki in assay [1] is 0.28 nM; on 5-HT2A receptor it was 3.2 nM; at D2 receptor, 4.5 nM; at H1 receptor, 460 nM.

Turning to `O=C(N[C@H]1CC[C@H](CCN2CCN(c3cc(-c4ccc[nH]4)cc(N4CCOCC4)n3)CC2)CC1)c1ccco1` [VII-2, N-(trans-4-(2-(4-(6-morpholino-4-(1H-pyrrol-2-yl)pyridin-2-yl)piperazin-1-yl)ethyl)cyclohexyl)furan-2-carboxamide], the Ki in assay [1] came out at 0.1 nM; on 5-HT2A receptor it was 0.7 nM; on D2 receptor it was 2.6 nM; at H1 receptor, 600 nM.

For `O=C(N[C@H]1CC[C@H](CCN2CCN(c3cc(-c4ccc[nH]4)cc(N4CCOCC4)n3)CC2)CC1)N1CCCCC1` [VII-5, N-(trans-4-(2-(4-(6-morpholino-4-(1H-pyrrol-2-yl)pyridin-2-yl)piperazin-1-yl)ethyl)cyclohexyl)piperidine-1-carboxamide], the inhibition constant (Ki) in assay [1] was 0.3 nM; at 5-HT2A receptor, 7.9 nM; on D2 receptor, 4 nM; on H1 receptor, > 1000 nM.
